In one data set the test system is C. albicans. The conditions noted are these: 24 h, 4 µM. The procedure:
Each Candida strain was first plated on agar plates and cultured for 24 h at 37 °C. After incubation, one colony per isolate was transferred into 5 mL of Sabouraud medium pH 5.6 (Sigma-Aldrich, Le Pont-de-Claix, France) supplemented with tetracycline (10 μg/mL) and cefotaxime (10 μg/mL) and incubated aerobically under agitation at 37 °C for 24 h. The resulting cultures were resuspended at an absorbance of 0.001 (OD600nm = 0.001) in Sabouraud medium. The OD600nm was evaluated with a spectrophotometer (BIO-RAD Smatspec^TM plus, Schiltigheim, France). In preliminary experiments, we tested RPMI-1640 culture and Sabouraud media. […] Therefore, Sabouraud medium was used in the present study.
(§1) The yeasts (OD600nm = 0.001) were then plated on 96-well microplates and treated with different concentrations of the peptides of interest. After 24 h incubation at 37 °C under agitation, yeast growth was assessed by optical density (OD600nm) using a microplate spectrophotometer (Multiscan EX, Thermo Fisher Scientific, Waltham, MA, USA). All tests were performed in triplicate.
The same method was used to evaluate the MICs of peptide/bovine serum albumin combinations (BSA).

The subject of the next data set is Candida glabrata “S”. In kind it is cell-based. The conditions noted are these: 24 h, pH 5.6. The procedure: (§2) Strains of Candida albicans, Candida tropicalis and Candida glabrata, frequently found in cases of oral candidosis, were tested for L-bCtl and D-bCtl antimicrobial activity. The sensitive strain of C. albicans (ATCC 10231^TM) was provided by ATCC (Manassas, VA, USA). The resistant strain of C. albicans, the sensitive and resistant strains of C. tropicalis as well as the sensitive and resistant strains of C. glabrata were kindly provided by Dr Valérie Letscher-Bru (Laboratory of Parasitolology and Medical Mycology, Strasbourg, France).
(§3) Each Candida strain was first plated on agar plates and cultured for 24 h at 37 °C. After incubation, one colony per isolate was transferred into 5 mL of Sabouraud medium pH 5.6 (Sigma-Aldrich, Le Pont-de-Claix, France) supplemented with tetracycline (10 μg/mL) and cefotaxime (10 μg/mL) and incubated aerobically under agitation at 37 °C for 24 h. The resulting cultures were resuspended at an absorbance of 0.001 (OD600nm = 0.001) in Sabouraud medium. The OD600nm was evaluated with a spectrophotometer (BIO-RAD Smatspec^TM plus, Schiltigheim, France). In preliminary experiments, we tested RPMI-1640 culture and Sabouraud media. Similar data were obtained but the experiments were more reproducible with Sabouraud than with RPMI1640. Therefore, Sabouraud medium was used in the present study.
as §1, with “triplicate. The MIC (minimal inhibitory concentration), defined as the lowest concentration of drug able to inhibit 100% of the growth of a pathogen, was determined for the different peptides against all previously described Candida strains, using a modified Gompertz model.” for “triplicate.”

For data set [1], the system named is Candida albicans “S” (ATCC 10231). The data set is classed as cell-based. The conditions noted are these: ATCC 10231, 24 h, pH 5.6. The procedure:
as §2, §3
as §1, with “triplicate. The MIC (minimal inhibitory concentration), defined as the lowest concentration of drug able to inhibit 100% of the growth of a pathogen, was determined for the different peptides against all previously described Candida strains, using a modified Gompertz model.” for “triplicate.”

The subject of the next data set is Candida albicans “R”. In kind it is cell-based. The settings on record: 24 h, pH 5.6. The protocol: as §2, §3
as §1, with “triplicate. The MIC (minimal inhibitory concentration), defined as the lowest concentration of drug able to inhibit 100% of the growth of a pathogen, was determined for the different peptides against all previously described Candida strains, using a modified Gompertz model.” for “triplicate.”

The next data set deals with Candida tropicalis “S”. In kind it is cell-based. The settings on record: 24 h, pH 5.6. The procedure: as §2, §3
as §1, with “triplicate. The MIC (minimal inhibitory concentration), defined as the lowest concentration of drug able to inhibit 100% of the growth of a pathogen, was determined for the different peptides against all previously described Candida strains, using a modified Gompertz model.” for “triplicate.”

Another data set has as its system Candida tropicalis “R”. The data set is classed as cell-based. The conditions noted are these: 24 h, pH 5.6. The procedure: as §2, §3
as §1, with “triplicate. The MIC (minimal inhibitory concentration), defined as the lowest concentration of drug able to inhibit 100% of the growth of a pathogen, was determined for the different peptides against all previously described Candida strains, using a modified Gompertz model.” for “triplicate.”

A further data set relates to Candida glabrata “R”. The data set is classed as cell-based. The settings on record: 24 h, pH 5.6. The procedure: as §2, §3
as §1, with “triplicate. The MIC (minimal inhibitory concentration), defined as the lowest concentration of drug able to inhibit 100% of the growth of a pathogen, was determined for the different peptides against all previously described Candida strains, using a modified Gompertz model.” for “triplicate.”

Another data set deals with “R” C. albicans. The data set can be described thus: Transmission electron microscopy of treated cells. The data set is classed as cell-based, Candida albicans. The conditions noted are these: 1 × MIC and 10 × MIC, 1 h at 37 °C. The protocol:
(§4) Precultures of sensitive and resistant Candida albicans strains were incubated for 2 h at 37 °C without shaking on glass bottom 24-well microplates previously treated with poly-L-lysine. The L-bCtl or D-bCtl peptides at concentrations of 1X MIC and 10X MIC were then added to the culture and incubated for 1 h at 37 °C with minimal shaking. The control samples correspond to the incubation of the different Candida albicans strains without any prior treatment. After 1 h incubation with or without each peptide of interest and a brief rinsing in 0.125 M cacodylate buffer, cells were fixed for 2 h 30 min in a 4% (v/v) glutaraldehyde buffered in 0.1 M sodium phosphate at pH 7.2. This step was followed with three 10 min washes in 0.1 M phosphate buffer at pH 7.2. Then the samples were post-fixed in a freshly prepared 2% (v/v) aqueous solution of potassium permanganate for 45 min at room temperature. The samples were washed three more times and dehydrated in graded series of ethanol of 7 min each. […]
(§5) Ultrathin sections were performed using a Reichert Jung Ultra-cut E ultra-microtome (Leica Microsystems, Nanterre, France) equipped with a diamond knife. […] Images were recorded on Kodak SO163 film (Sigma Aldrich, Saint-Quentin Fallavier, France). […]

The subject of a further data set is “S” C. albicans. As to the kind of experiment: Transmission electron microscopy of treated cells. The settings on record: 1 × MIC and 10 × MIC, 1 h at 37 °C. In kind it is cell-based, Candida albicans. The protocol:
as §4, §5

In data set [2] the test system is Candida albicans “S” (ATCC 10231). Also noted: method as in Dartevelle et al. [28]. The conditions noted are these: ref Dartevelle et al. [28], cited from earlier work; for MIC C. albicans “S”: values marked *, MIC = 100% growth inhibition.
For data set [3] the following is noted: cited from earlier work. From the text:
Host-defense peptides (HDPs) have emerged as new attractive candidates in the development of new antimicrobial agents. In addition, HDPs have been proven to be potent immune effectors via the orchestration of immune responses.

≈ marks a conversion by molar mass, not a printed value. Read-outs that look alike come from different tables or passages of the source. Non-standard residues stand in square brackets, D forms with d. Residues, ends and D or L forms follow the SMILES beside them.

These results are taken from publication PMC8876135, “The Catestatin-Derived Peptides Are New Actors to Fight the Development of Oral Candidosis” (International Journal of Molecular Sciences, 2022).

Turning to `CSCC[C@H](NC(=O)[C@H](CO)NC(=O)[C@@H](N)CCCNC(=N)N)C(=O)N[C@@H](CCCNC(=N)N)C(=O)N[C@@H](CC(C)C)C(=O)N[C@@H](CO)C(=O)N[C@@H](Cc1ccccc1)C(=O)N[C@@H](CCCNC(=N)N)C(=O)N[C@@H](C)C(=O)N[C@@H](CCCNC(=N)N)C(=O)NCC(=O)N[C@@H](Cc1ccc(O)cc1)C(=O)NCC(=O)N[C@@H](Cc1ccccc1)C(=O)N[C@@H](CCCNC(=N)N)C(=O)NCC(=O)N1CCC[C@H]1C(=O)NCC(=O)N[C@@H](CC(C)C)C(=O)N[C@@H](CCC(N)=O)C(=O)N[C@@H](CC(C)C)C(=O)O` [bCts] (H-RSMRLSFRARGYGFRGPGLQL-OH), in the data set with C. albicans, the inhibition result is given as “more than 90%”. For the same molecule, the “MIC Candida glabrata “S”” value against Candida glabrata “S” is above 100 µg/mL. Moreover, the “MIC C. albicans “S”” value in [1] stood at 30 µg/mL (≈ 12.4 µM). The “MIC C. albicans “R”” value in the data set on Candida albicans “R” is 50 µg/mL (≈ 20.6 µM). The “MIC Candida tropicalis “S”” value with Candida tropicalis “S” turned out to be 50 µg/mL (≈ 20.6 µM). Also, in the data set on Candida tropicalis “R”, the “MIC Candida tropicalis “R”” value was 20 µg/mL (≈ 8.24 µM). Besides, the “MIC Candida glabrata “R”” value in the data set on Candida glabrata “R” is listed as above 100 µg/mL.
Regarding `CSCC[C@@H](NC(=O)[C@@H](CO)NC(=O)[C@H](N)CCCNC(=N)N)C(=O)N[C@H](CCCNC(=N)N)C(=O)N[C@H](CC(C)C)C(=O)N[C@H](CO)C(=O)N[C@H](Cc1ccccc1)C(=O)N[C@H](CCCNC(=N)N)C(=O)N[C@H](C)C(=O)N[C@H](CCCNC(=N)N)C(=O)NCC(=O)N[C@H](Cc1ccc(O)cc1)C(=O)NCC(=O)N[C@H](Cc1ccccc1)C(=O)N[C@H](CCCNC(=N)N)C(=O)O` [Peptide P1] (H-[dR][dS][dM][dR][dL][dS][dF][dR][dA][dR]G[dY]G[dF][dR]-OH; N-terminus and C-terminus assumed), the TEM observation entry with “R” C. albicans and in the data set on “S” C. albicans was “fungal membrane lysis” in each case. Besides, in the data set on Candida glabrata “S”, the “MIC Candida glabrata “S”” value is on record as 13.4 µg/mL (≈ 7.2 µM). For the same molecule, the “MIC C. albicans “R”” value against Candida albicans “R” came out at 9.6 µg/mL (≈ 5.16 µM). Also, the “MIC Candida tropicalis “S”” value in the data set on Candida tropicalis “S” turned out to be 8.1 µg/mL (≈ 4.35 µM). The “MIC Candida tropicalis “R”” value against Candida tropicalis “R” came out at 2.0 µg/mL (≈ 1.08 µM). Moreover, the “MIC Candida glabrata “R”” value against Candida glabrata “R” worked out at 15.0 µg/mL (≈ 8.06 µM). Besides, the “MIC C. albicans “S” (as stated in discussion)” value in data set [2] (peptide alone, same figures as the * values of Tables 2 and 3) is 5.5 µM (≈ 10.2 µg/mL). The results for the “MIC C. albicans “S”” value in data set [2] and in [2] (listed as D-form of bCtl) were 5.5 * µg/mL and 5.5 µg/mL (≈ 2.96 µM), respectively.
As for `CSCC[C@H](NC(=O)[C@H](CO)NC(=O)[C@@H](N)CCCNC(=N)N)C(=O)N[C@@H](CCCNC(=N)N)C(=O)N[C@@H](CC(C)C)C(=O)N[C@@H](CO)C(=O)N[C@@H](Cc1ccccc1)C(=O)N[C@@H](CCCNC(=N)N)C(=O)N[C@@H](C)C(=O)N[C@@H](CCCNC(=N)N)C(=O)NCC(=O)N[C@@H](Cc1ccc(O)cc1)C(=O)NCC(=O)N[C@@H](Cc1ccccc1)C(=O)N[C@@H](CCCNC(=N)N)C(=O)O` [bCtl] (H-RSMRLSFRARGYGFR-OH), in data set [3], the “stability to bacterial degradation” value was “resists bacterial degradation”. Besides, the “MIC Candida glabrata “S”” value against Candida glabrata “S” worked out at 38.2 µg/mL (≈ 20.5 µM). Besides, the “MIC C. albicans “R”” value in the data set on Candida albicans “R” worked out at 9.6 µg/mL (≈ 5.16 µM). For the same molecule, the “MIC Candida tropicalis “S”” value in the data set on Candida tropicalis “S” is on record as 9.8 µg/mL (≈ 5.27 µM). The “MIC Candida tropicalis “R”” value with Candida tropicalis “R” came to 2.0 µg/mL (≈ 1.08 µM). The “MIC Candida glabrata “R”” value with Candida glabrata “R” is reported as 61.4 µg/mL (≈ 33 µM).
As to `CSCC[C@H](NC(=O)[C@H](CO)NC(=O)[C@@H](N)CO)C(=O)N[C@@H](CCCCN)C(=O)N[C@@H](CC(C)C)C(=O)N[C@@H](CO)C(=O)N[C@@H](Cc1ccccc1)C(=O)N[C@@H](CCCNC(=N)N)C(=O)N[C@@H](C)C(=O)N[C@@H](CCCNC(=N)N)C(=O)N[C@@H](C)C(=O)N[C@@H](Cc1ccc(O)cc1)C(=O)NCC(=O)N[C@@H](Cc1ccccc1)C(=O)N[C@@H](CCCNC(=N)N)C(=O)NCC(=O)N1CCC[C@H]1C(=O)NCC(=O)N1CCC[C@H]1C(=O)N[C@@H](CCC(N)=O)C(=O)N[C@@H](CC(C)C)C(=O)O` [hCts] (H-SSMKLSFRARAYGFRGPGPQL-OH), in the data set with Candida glabrata “S”, the “MIC Candida glabrata “S”” value is above 240 µg/mL. Further, the “MIC C. albicans “S”” value in [1] is given as above 240 µg/mL. For the same molecule, in the data set with Candida albicans “R”, the “MIC C. albicans “R”” value is given as above 240 µg/mL. In the data set on Candida tropicalis “S”, the “MIC Candida tropicalis “S”” value was above 240 µg/mL. In addition, the “MIC Candida tropicalis “R”” value in the data set with Candida tropicalis “R” is listed as above 240 µg/mL. Further, in the data set with Candida glabrata “R”, the “MIC Candida glabrata “R”” value is listed as above 240 µg/mL.
